The values that follow are results of earlier work, collected in US20190343122A1, “IMPROVED INSECT CONTROL STRATEGIES UTILIZING PHEROMONES AND RNAI” (Provivi, Inc., priority 2016, published 2019).

The test system of one series is aphids. The following applies: in vivo.
In another series the test system is E. heros. The following applies: female E. heros.
The test system of a further series is target genes of pests. The following applies: Noctuidae Spodoptera exigua.

In the case of `CCCCCCC=O` [Heptanal], the “attractiveness of an oviposition substrate” value with mated H. armigera was “significantly increase the attractiveness”.
Take `CNC(=O)Oc1cccc2ccccc12` [Sevin, carbaryl]: the effectiveness against aphids result in the series with aphids is recorded as “not effective against many aphids”.
Take `CCCC(C)CCCC(C)CCCC(C)C(=O)OC` (centres unmarked) [TMTD, methyl 2,6,10-trimethyltridecanoate]: the attraction to lures result in the series on E. heros was “attracted”.
For the compound `O=Cc1ccccc1` [benzaldehyde], the “attractiveness of an oviposition substrate” value with mated H. armigera is listed as “significantly increase the attractiveness”.
With PGCP, the Larval mortality entry in the series on target genes of pests was “Larval mortality increased”.
